Assay results: ChEMBL document CHEMBL5500384, “New synergistic benzoquinone scaffolds as inhibitors of mycobacterial cytochrome bc1 complex to treat multi-drug resistant tuberculosis” (Eur J Med Chem, 2024)
Converted amounts (≈) assume the structure as drawn.

Columns and labels:
Format in all cases: functional
[1] = system: Mycobacterium tuberculosis; assay: Antitubercular activity against multidrug resistant Mycobacterium tuberculosis BLG3381 incubated for 5 days by microtiter plate method; settings: BLG3381, 120 h, time 5 day
[2] = system: Mycobacterium tuberculosis; assay: Antitubercular activity against multidrug resistant Mycobacterium tuberculosis RF21250 incubated for 5 days by microtiter plate method; settings: time 5 day; for MIC: Mycobacterium tuberculosis, RF21250, 120 h
[3] = system: Mycobacterium tuberculosis; assay: Antitubercular activity against multidrug resistant Mycobacterium tuberculosis RF21212 incubated for 5 days by microtiter plate method; settings: time 5 day; for MIC: Mycobacterium tuberculosis, RF21212, 120 h
[4] = system: Mycobacterium tuberculosis; assay: Potentiation of rifampicin antitubercular activity against multidrug resistant Mycobacterium tuberculosis RF21250 assessed as decrease in rifampicin MIC99.9 at 0.78 ug/ml by broth dilution method (reference value: 128 ug/ml); settings: dose 0.78 µg/ml
[5] = system: Mycobacterium tuberculosis; assay: Potentiation of isoniazid antitubercular activity against multidrug resistant Mycobacterium tuberculosis RF21212 assessed as decrease in isoniazid MIC99.9 at 1.56 ug/ml by broth dilution method (reference value: 12.8 ug/ml); settings: dose 1.56 µg/ml
[6] = system: Mycobacterium tuberculosis; assay: Potentiation of rifampicin antitubercular activity against multidrug resistant Mycobacterium tuberculosis RF21212 assessed as decrease in rifampicin MIC99.9 at 1.56 ug/ml by broth dilution method (reference value: 128 ug/ml); settings: dose 1.56 µg/ml
[7] = system: Mycobacterium tuberculosis; assay: Potentiation of isoniazid antitubercular activity against multidrug resistant Mycobacterium tuberculosis BLG3381 assessed as decrease in isoniazid MIC99.9 at 3.125 ug/ml by broth dilution method (reference value: 12.8 ug/ml); settings: dose 3.125 µg/ml
[8] = system: Mycobacterium tuberculosis; assay: Potentiation of rifampicin antitubercular activity against multidrug resistant Mycobacterium tuberculosis BLG3381 assessed as decrease in rifampicin MIC99.9 at 3.125 ug/ml by broth dilution method (reference value: 64 ug/ml); settings: dose 3.125 µg/ml
[9] = system: Mycobacterium tuberculosis; assay: Potentiation of isoniazid antitubercular activity against multidrug resistant Mycobacterium tuberculosis RF21250 assessed as decrease in isoniazid MIC99.9 at 1.56 ug/ml by broth dilution method (reference value: 3.2 ug/ml); settings: dose 1.56 µg/ml
[10] = system: Mycobacterium tuberculosis; assay: Potentiation of rifampicin antitubercular activity against multidrug resistant Mycobacterium tuberculosis BLG3381 assessed as decrease in rifampicin MIC99.9 at 6.25 ug/ml by broth dilution method (reference value: 64 ug/ml); settings: dose 6.25 µg/ml
[11] = system: Mycobacterium tuberculosis; assay: Potentiation of rifampicin antitubercular activity against multidrug resistant Mycobacterium tuberculosis RF21212 assessed as decrease in rifampicin MIC99.9 at 3.125 ug/ml by broth dilution method (reference value: 128 ug/ml); settings: dose 3.125 µg/ml
[12] = system: Mycobacterium tuberculosis; assay: Potentiation of isoniazid antitubercular activity against multidrug resistant Mycobacterium tuberculosis BLG3381 assessed as decrease in isoniazid MIC99.9 at 6.25 ug/ml by broth dilution method (reference value: 12.8 ug/ml); settings: dose 6.25 µg/ml
[13] = system: Mycobacterium tuberculosis; assay: Potentiation of rifampicin antitubercular activity against multidrug resistant Mycobacterium tuberculosis RF21250 assessed as decrease in rifampicin MIC99.9 at 3.125 ug/ml by broth dilution method (reference value: 128 ug/ml); settings: dose 3.125 µg/ml
[14] = system: Mycobacterium tuberculosis; assay: Potentiation of isoniazid antitubercular activity against multidrug resistant Mycobacterium tuberculosis RF21250 assessed as decrease in isoniazid MIC99.9 at 3.125 ug/ml by broth dilution method (reference value: 3.2 ug/ml); settings: dose 3.125 µg/ml
[15] = system: Mycobacterium tuberculosis; assay: Potentiation of isoniazid antitubercular activity against multidrug resistant Mycobacterium tuberculosis RF21212 assessed as decrease in isoniazid MIC99.9 at 3.125 ug/ml by broth dilution method (reference value: 12.8 ug/ml); settings: dose 3.125 µg/ml
[16] = system: Mycobacterium tuberculosis; assay: Potentiation of rifampicin antitubercular activity against multidrug resistant Mycobacterium tuberculosis BLG3381 assessed as decrease in rifampicin MIC99.9 at 0.39 ug/ml by broth dilution method (reference value: 64 ug/ml); settings: dose 0.39 µg/ml
[17] = system: Mycobacterium tuberculosis; assay: Potentiation of rifampicin antitubercular activity against multidrug resistant Mycobacterium tuberculosis RF21250 assessed as decrease in rifampicin MIC99.9 at 0.39 ug/ml by broth dilution method (reference value: 128 ug/ml); settings: dose 0.39 µg/ml
[18] = system: Mycobacterium tuberculosis; assay: Potentiation of isoniazid antitubercular activity against multidrug resistant Mycobacterium tuberculosis BLG3381 assessed as decrease in isoniazid MIC99.9 at 0.39 ug/ml by broth dilution method (reference value: 12.8 ug/ml); settings: dose 0.39 µg/ml
[19] = system: Mycobacterium tuberculosis; assay: Potentiation of isoniazid antitubercular activity against multidrug resistant Mycobacterium tuberculosis RF21250 assessed as decrease in isoniazid MIC99.9 at 0.39 ug/ml by broth dilution method (reference value: 3.2 ug/ml); settings: dose 0.39 µg/ml
[20] = system: Mycobacterium tuberculosis; assay: Potentiation of isoniazid antitubercular activity against multidrug resistant Mycobacterium tuberculosis RF21250 assessed as decrease in isoniazid MIC99.9 at 0.78 ug/ml by broth dilution method (reference value: 3.2 ug/ml); settings: dose 0.78 µg/ml
[21] = system: Mycobacterium tuberculosis; assay: Potentiation of isoniazid antitubercular activity against multidrug resistant Mycobacterium tuberculosis RF21212 assessed as decrease in isoniazid MIC99.9 at 0.78 ug/ml by broth dilution method (reference value: 12.8 ug/ml); settings: dose 0.78 µg/ml
[22] = system: Mycobacterium tuberculosis; assay: Potentiation of rifampicin antitubercular activity against multidrug resistant Mycobacterium tuberculosis RF21212 assessed as decrease in rifampicin MIC99.9 at 0.78 ug/ml by broth dilution method (reference value: 128 ug/ml); settings: dose 0.78 µg/ml

Compound | MIC [1] | MIC [2] | MIC [3] | MIC99.9 [4] | MIC99.9 [5] | MIC99.9 [6] | MIC99.9 [7] | MIC99.9 [8] | MIC99.9 [2] | MIC99.9 [3] | MIC99.9 [11] | MIC99.9 [15] | MIC99.9 [20] | also measured
CO[C@H]1/C=C/O[C@@]2(C)Oc3c(C)c(O)c4c(O)c(c(/C=N/N5CCN(C)CC5)c(O)c4c3C2=O)NC(=O)/C(C)=C\C=C\[C@H](C)[C@H](O)[C@@H](C)[C@@H](O)[C@@H](C)[C@H](OC(C)=O)[C@@H]1C [RIFAMPIN] | 77.8 µM | 156 µM (≈ 128 µg/mL) | 156 µM (≈ 128 µg/mL) | – | – | – | – | – | – | – | – | – | – | –
CN(C)c1ccc(C2C(Cl)C(=O)N2C2=C(Cl)C(=O)c3ccccc3C2=O)cc1 (stereo not given) | 30.1 µM | – | – | 1 µg/mL | 3.2 µg/mL | 16 µg/mL | 1.6 µg/mL | 4 µg/mL | 6.25 µg/mL (≈ 15.1 µM) | 6.25 µg/mL (≈ 15.1 µM) | – | – | – | MIC99.9 [9]: 1.6 µg/mL
O=C1C(Cl)=C(Cl)C(=O)c2ccccc21 [Dichlon] | 55.1 µM | 27.5 µM (≈ 6.25 µg/mL) | 55.1 µM (≈ 12.5 µg/mL) | – | – | – | – | – | – | – | 32 µg/mL | 3.2 µg/mL | – | MIC99.9 [10]: 8 µg/mL; MIC99.9 [12]: 0.8 µg/mL; MIC99.9 [13]: 16 µg/mL; MIC99.9 [14]: 0.4 µg/mL
O=C1C(Cl)=C(N2C(=O)C(Cl)C2c2ccccc2)C(=O)c2ccccc21 (stereo not given) | 6.25 µg/mL | – | – | – | – | – | – | – | – | – | – | – | – | –
NC1=C(Cl)C(=O)c2ccccc2C1=O | 15.1 µM | – | – | – | – | – | – | – | 3.125 µg/mL (≈ 15.1 µM) | 6.25 µg/mL (≈ 30.1 µM) | 4 µg/mL | 1.6 µg/mL | – | MIC99.9 [16]: 0.007 µg/mL; MIC99.9 [17]: 0.125 µg/mL; MIC99.9 [18]: 0.8 µg/mL; MIC99.9 [19]: 0.2 µg/mL
O=C1C(Cl)=C(N2C(=O)C(Cl)C2c2ccc([N+](=O)[O-])cc2)C(=O)c2ccccc21 (stereo not given) | 15 µM | – | 30 µM (≈ 12.5 µg/mL) | 2 µg/mL | – | – | 0.025 µg/mL | 0.25 µg/mL | 3.125 µg/mL (≈ 7.49 µM) | – | 2 µg/mL | 1.6 µg/mL | 0.4 µg/mL | –
NNC(=O)c1ccncc1 [ISONIAZID] | 93.9 µM | 23.3 µM (≈ 3.2 µg/mL) | 93.9 µM (≈ 12.9 µg/mL) | – | – | – | – | – | – | – | – | – | – | –
O=C1C(Cl)=C(N2C(=O)C(Cl)C2c2ccc(Cl)cc2)C(=O)c2ccccc21 (stereo not given) | 30.8 µM | – | – | 4 µg/mL | 0.1 µg/mL | 0.031 µg/mL | 1.6 µg/mL | 0.1 µg/mL | 6.25 µg/mL (≈ 15.4 µM) | 6.25 µg/mL (≈ 15.4 µM) | – | – | 0.8 µg/mL | –
COc1ccc(C2C(Cl)C(=O)N2C2=C(Cl)C(=O)c3ccccc3C2=O)cc1 (stereo not given) | 15.5 µM | – | 31.1 µM (≈ 12.5 µg/mL) | – | – | 16 µg/mL | 0.4 µg/mL | 1 µg/mL | 6.25 µg/mL (≈ 15.5 µM) | – | – | – | – | MIC99.9 [21]: 1.6 µg/mL; MIC99.9 [17]: 0.125 µg/mL; MIC99.9 [19]: 0.4 µg/mL
CCOc1cc(C2C(Cl)C(=O)N2C2=C(Cl)C(=O)c3ccccc3C2=O)ccc1O (stereo not given) | 28.9 µM | – | 7.23 µM (≈ 3.13 µg/mL) | 1 µg/mL | 0.4 µg/mL | – | 0.05 µg/mL | 0.5 µg/mL | 3.125 µg/mL (≈ 7.23 µM) | – | – | – | 0.2 µg/mL | MIC99.9 [22]: 0.5 µg/mL
